Literature values, collected in patent US20260117185A1, “ENHANCEMENT OF FIBROBLAST PLASTICITY FOR TREATMENT OF DISC DEGENERATION” (SPINALCYTE, LLC, priority 2018, published 2026).

Tests used:
[1] = system: mesenchymal stem cells; conditions: culture of cells with valproic acid
[2] = system: in vitro pre-mature senescence model; conditions: valproic acid treatment
[3] = through the suppression of the p16/p21 pathway

In the case of `CCCC(CCC)C(=O)O` [valproic acid], the “immune regulatory and metabolic properties of mesenchymal stem cells” value [1] is given as “enhanced immune regulatory and metabolic properties”, the “G2/M phase blockage derived from the senescence stress” value [2] is given as “inhibited the G2/M phase blockage” and the apoptosis [2, 3] is given as “inhibited apoptosis”. For the same compound, the cell proliferation [2, 3] was “increased cell proliferation”.
